In patent US20060286130A1, “Sterile gelling agents” (priority 2005, published 2006):

Assays:
[1] = Sterilization by gamma irradiation, appearance / degradation of the gelling agent; type: physicochemical; details: 25 KGy, 60Cobalt source
Description: In an additional embodiment of the invention, the sterile dried bulk gelling agent is subjected to sterilization by gamma irradiation. […] Other materials in the gelled polymeric dispersion can be processed by other techniques as described above and generally known in the art of preparation of sterile dosage forms.
Sorbitan monostearate prepared in Example 1 was exposed to gamma irradiation at a dose of 25 KGy using a ^60Cobalt source at a contract irradiation laboratory. A dose of 25 KGy is accepted internationally to be sufficient to ensure sterility (British Pharmacopoeia).

[2] = Sterilization by dry heat, appearance of the material; type: physicochemical; details: 180° C. for 2 hours
Protocol: Sorbitan monostearate (Sanyo, Japan) was subjected to sterilization by dry heat at a temperature of 180° C. for 2 hours. […] The material thus obtained though it would pass the test for sterility renders the final product unacceptable for pharmiaceutical use because of the dark brown color it imparts.

change in appearance after gamma irradiation [1]	appearance after sterilization by dry heat [2]	Substance
no change in appearance	–	Sorbitan monostearate [listing 1 of 2 here]
–	dark brown colored mass	Sorbitan monostearate [listing 2 of 2 here]
